Here are results for 32 molecules from patent US11021481B2, “Substituted isoindolin-1-ones and 2,3-dihydro-1h-pyrrolo[3,4-c]pyridin-1-ones as HPK1 antagonists” (Nimbus Saturn, Inc., priority 2019, dated 2021).

Where a name gives a salt, the structure may show the parent alone.

Chain of HPK1 (Q92918 whole entry): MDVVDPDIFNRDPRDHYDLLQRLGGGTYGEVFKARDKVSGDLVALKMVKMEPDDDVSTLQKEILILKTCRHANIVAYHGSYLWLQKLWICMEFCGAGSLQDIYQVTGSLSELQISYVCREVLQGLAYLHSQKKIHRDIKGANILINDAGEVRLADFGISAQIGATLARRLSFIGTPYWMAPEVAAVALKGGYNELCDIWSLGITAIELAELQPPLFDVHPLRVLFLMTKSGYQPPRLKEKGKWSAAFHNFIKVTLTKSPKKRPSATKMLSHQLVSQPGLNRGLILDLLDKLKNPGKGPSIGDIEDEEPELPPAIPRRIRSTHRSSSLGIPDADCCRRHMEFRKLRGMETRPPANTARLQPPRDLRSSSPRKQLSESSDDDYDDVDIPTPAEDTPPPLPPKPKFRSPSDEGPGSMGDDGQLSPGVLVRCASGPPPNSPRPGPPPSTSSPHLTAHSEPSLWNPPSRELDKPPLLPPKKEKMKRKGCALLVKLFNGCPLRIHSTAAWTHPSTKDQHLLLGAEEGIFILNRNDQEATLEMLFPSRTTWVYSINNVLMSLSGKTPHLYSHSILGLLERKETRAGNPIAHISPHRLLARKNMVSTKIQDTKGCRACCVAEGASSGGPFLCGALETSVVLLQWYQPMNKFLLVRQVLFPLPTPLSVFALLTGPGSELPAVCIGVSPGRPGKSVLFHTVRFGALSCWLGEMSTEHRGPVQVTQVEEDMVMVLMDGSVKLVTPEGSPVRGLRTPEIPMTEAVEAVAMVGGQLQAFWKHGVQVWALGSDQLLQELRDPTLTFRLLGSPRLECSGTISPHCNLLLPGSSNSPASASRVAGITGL

The target in the test is HPK1 (Homo sapiens (Human), UniProt Q92918). Description: HPK1 biochemical enzyme assay (microfluidic mobility shift assay). As to conditions: 1.5 nM HPK1, ATP 1 mM final, 30 min preincubation, 60 min at RT, Caliper EZ Reader; read-out: HPK1 1000UMATP caliper IC50. The essentials:
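Mobility shift readout of HPK1 activity after a 60 min RT reaction with 1 mM ATP, 1 μM substrate and 5 mM MgCl2. Enzyme/substrate mix was first exposed to compounds for 30 min, using ten-point curves topping at 3 μM final.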
What is called IC50 is the point on the concentration scale where inhibition reaches its midpoint. Take `CO[C@H]1CCN(Cc2nc(Nc3ccc(-c4cnc5cc(F)ccn45)c4c3C(=O)NC4)ccc2[C@@H]2CCOC2)C1` [I-790, 4-(7-fluoroimidazo [1,2-a]pyridin-3-yl)-7-((6-(((S)-3-methoxypyrrol-idin-1-yl)methyl)-5-((S)-tetrahydiofuran-3-yl)pyridin-2-yl)amino)isoin-dolin-1-one]: the IC50 is < 100 nM.

Turning to `O=C1NCc2c(-c3cnn4c3CCCC4)ccc(Nc3ccc(N4CCC[C@]5(CCNC5=O)C4)cn3)c21` [I-446, (S)-7-(6-((3-oxo-7-(4,5,6,7-tetrahydropyra-zolo[1,5-a]pyridin-3-yl)isoindolin-4-yl)amino)pyri-din-3-yl)-2,7-diazaspiro[4.5] decan-1-one], the IC50 is < 100 nM. For `COCC1CN(c2ccc(Nc3ccc(-c4cnc5cnccn45)c4c3C(=O)NC4)nc2)CCO1` (stereo in doubt) [I-334, (R)-4-(imidazo[1,2-a]pyrazin-3-yl)-7-((5-(2-(methoxymeth-yl)morpholino)-pyridin-2-yl)amino)isoin-dolin-1-one] the value was < 100 nM; for `C[C@@H]1COc2c(-c3ccc(Nc4ccc(N5CCN(C)CC5)cn4)c4c3CNC4=O)cnn2C1` [I-261, (S)-4-(6-methyl-6,7-dihydro-5H-pyrazolo[5,1-b][l,3]oxazin-3-yl)-7-((5-(4-methylpiperazin-1-yl)pyridin-2-yl)amino)isoin-dolin-1-one], < 100 nM. In the case of `COC[C@H]1CN(c2ccc(Nc3cnc(-c4ccnc5c4ccn5C)c4c3C(=O)NC4)nc2)CC[C@@H]1O` [I-414] it was < 100 nM; in that of `O=C1NCc2c(-c3cnc4cc(F)ccn34)ccc(Nc3ccc([C@@H]4CCOC4)c(CN4CC[C@@H](F)C4)n3)c21` (stereo in doubt) [I-742], < 100 nM.

Regarding `CN1CCN(c2ccc(Nc3ccc(-c4c[nH]c5cccnc45)c4c3C(=O)NC4)nc2)CC1` [I-26, 7-((5-(4-methylpiperazin-1-yl)pyridin-2-yl)amino)-4-(1H-pyrrolo[3,2-b]pyridin-3-yl)isoindolin-1-one], the IC50 was 100 to 1000 nM. On to `O=C1NCc2c(-c3cnc4cnccn34)ccc(Nc3ccc(N4[C@@H]5CC[C@H]4C[C@@H](O)C5)cn3)c21` [I-304, 7-((5-((1R,3r,5S)-3-hydroxy-8-azabicyclo [3,2.1]octan-8-yl)pyridin-2-yl)amino)-4-(imidazo[1,2-a]pyrazin-3-yl)isoindolin-1-one], for which the IC50 was < 100 nM.

`Cc1ccc2c(-c3ccc(Nc4ccc(N5CCN(C)CC5)cn4)c4c3CNC4=O)c[nH]c2n1` [I-29, 7-[[5-(4-methylpiperazin-1-yl)-2-pyridyl]amino]-4-(6-methyl-1H-pyrrolo[2,3-b]pyridin-3-yl)-isoindolin-1-one]: the IC50 was < 100 nM. In the case of `Cn1ccc2c(-c3ncc(Nc4ccc(N5CC[C@@H](F)[C@H](O)C5)cn4)c4c3CNC4=O)ccnc21` [I-416, 7-((5-((3R,4R)-4-fluoro-3-hydroxy-piperidin-1-yl)pyridin-2-yl)amino)-4-(1-methyl-1H-pyrrolo[2,3-b]pyridin-4-yl)-2,3-dihydro-1H-pyrrolo[3,4-c]pyridin-1-one] it was < 100 nM. For `C[C@H](O)[C@@H]1CN(c2ccc(Nc3ccc(-c4cnc5cc(F)ccn45)c4c3C(=O)NC4)nc2)CCO1` (single isomer, unassigned) [I-620] the value was < 100 nM; for `Cc1cccn2c(-c3ncc(Nc4ccc(N5CCC[C@H](C(C)(C)O)C5)cn4)c4c3CNC4=O)cnc12` [I-241, 7-[[5-[(3S)-3-(1-hydroxy-1-methyl-ethyl)-1-piperidyl]-2-pyridyl]-amino]-4-(8-methylimidazo [1,2-a]pyridin-3-yl)-2,3-dihydropyrrolo [3,4-c]pyridin-1-one], < 100 nM.

With “4-(7- fluoroimidazo [1,2-a]pyridin- 3-yl)-7-[[5-(4- morpholino-1- piperidyl)-2- pyridyl]amino] isoindolin-1- one [I-488]”, the IC50 is < 100 nM. For `CN(C)Cc1nc(Nc2ccc(-c3cnc4cc(F)ccn34)c3c2C(=O)NC3)ccc1N1CCOCC12CC2` [I-525, 7-[[6-[(dimethylamino)-methyl]-5-(7-oxa-4-azaspiro[2.5]octan-4-yl)-2-pyridyl]amino]-4-(7-fluoroimidazo [1,2-a]pyridin-3-yl)isoindolin-1-one] the value was < 100 nM; for `O=C1NCc2c(-c3cnn4c3CCCC4)ccc(Nc3ccc(N4CCC(O)CC4)cn3)c21` [I-284, 7-((5-(4-hydroxy-piperidin-1-yl)pyridin-2-yl)amino)-4-(4,5,6,7-tetrahydropyra-zolo[1,5-a]pyridin-3-yl)isoindolin-1-one], < 100 nM; for `CCN(CC)Cc1nc(Nc2ccc(-c3cnc4cc(F)ccn34)c3c2C(=O)NC3)ccc1N1CCOCC1` [I-785, 7-((6-((diethylamino)-methyl)-5-morpholinopyr-idin-2-yl)amino)-4-(7-fluoroimidazo [1,2-a]pyridin-3-yl)isoindolin-1-one], < 100 nM. Regarding `CN1CCN(c2ccc(Nc3ccc(-c4ccn5ncccc45)c4c3C(=O)NC4)nc2)CC1` [I-256, 7-((5-(4-methylpiperazin-1-yl)pyridin-2-yl)amino)-4-(pyrrolo[1,2-b]pyridazin-5-yl)isoindolin-1-one], the IC50 is < 100 nM. Turning to `Cn1ccc2c(-c3ncc(Nc4cccc(C5CNC5)n4)c4c3CNC4=O)ccnc21` [I-415, 7-((6-(azetidin-3-yl)pyridin-2-yl)amino)-4-(1-methyl-1H-pyrrolo[2.3-b]pyridin-4-yl)-2,3-dihydro-1H-pyrrolo[3,4-c]pyridin-1-one], the IC50 is < 100 nM.

For the molecule `Cc1csc2c(-c3ncc(Nc4ccc(N5CCC(O)CC5)cn4)c4c3CNC4=O)ccnc12` [I-373, 7-((5-(4-hydroxypiperidin-1-yl)pyridin-2-yl)amino)-4-(3-methylthieno [3,2-b]pyridin-7-yl)-2,3-dihydro-1H-pyrrolo[3,4-c]pyridin-1-one], the half-inhibitory concentration (IC50) is < 100 nM. For `CN1CCO[C@@]2(CCCN(c3ccc(Nc4ccc(-c5cnc6cc(F)ccn56)c5c4C(=O)NC5)nc3)C2)C1` [I-506, (S)-4-(7-fluoroimidazo [1,2-a]pyridin-3-yl)-7-((5-(4-methyl-1-oxa-4,8-diazaspiro[5.5]undecan-8-yl)pyridin-2-yl)amino)isoin-dolin-1-one] the value was < 100 nM. `C[C@@H](c1nc(Nc2ccc(-c3cnc4cc(F)ccn34)c3c2C(=O)NC3)ccc1[C@H]1CCOC1)N(C)C` (single isomer, unassigned) [I-818]: the IC50 lay within 100 to 1000 nM. On to `COC[C@@H]1CN(c2ccc(Nc3cnc(-c4ccnc5c4ccn5C)c4c3C(=O)NC4)nc2CN(C)C)CCO1` [I-797, (S)-7-((6-((dimethylamino)-methyl)-5-(2-(methoxymeth-yl)morpholino)-pyridin-2-yl)amino)-4-(1-methyl-1H-pyrrolo[2,3-b]pyridin-4-yl)-2,3-dihydro-1H-pyrrolo[3,4-c)pyridin-1-one], for which the IC50 was < 100 nM. Consider `Cc1ccc(Nc2cnc(-c3ccnc4c3ccn4C)c3c2C(=O)NC3)nc1N(C)C1CNC1` [I-667, 7-((6-(azetidin-3-yl-(methyl)amino)-5-methylpyridin-2-yl)amino)-4-(1-methyl-1H-pyrrolo[2.3-b]pyridin-4-yl)-2,3-dihydro-1H-pyrrolo[3,4-c]pyridin-1-one], for which the IC50 is > 1000 nM. For `CN(C)Cc1nc(Nc2ccc(-c3cnc4cc(F)ccn34)c3c2C(=O)NC3)ccc1N1CCC(C)(O)CC1` [I-535, 7-[[6-[(dimethylamino)-methyl]-5-(4-hydroxy-4-methyl-1-piperidyl)-2-pyridyl]amino]-4-(7-fluoroimidazo [1,2-a]pyridin-3-yl)isoindolin-1-one Formic acid salt], the IC50 was < 100 nM. In the case of `C[C@@H](O)[C@@H]1CN(c2ccc(Nc3ccc(-c4cnc5cc(F)ccn45)c4c3C(=O)NC4)nc2)CCO1` [I-635, 4-(7-fluoroimidazo[1,2-a]pyridin-3-yl)-7-((5-((S)-2-((R)-1-hydroxyethyl)morpholino)pyridin-2-yl)amino)isoindolin-1-one], the IC50 is < 100 nM. Take `CN(C)C1(C2CN(c3ccc(Nc4ccc(-c5cnc6cc(F)ccn56)c5c4C(=O)NC5)nc3)CCO2)CC1` (stereo in doubt) [I-687, (S)-7-((5-(2-(1-(dimethylami-no)cyclopropyl)morpholino)py-ridin-2-yl)amino)-4-(7-fluoroimidazo [1,2-a]pyridin-3-yl)isoindolin-1-one]: the IC50 is < 100 nM. For `CN(C)CCOc1ccn2c(-c3ccc(Nc4ccc(N5CCC(F)C(O)C5)cn4)c4c3CNC4=O)cnc2c1` (centres unmarked) [I-249] the value was 100 to 1000 nM; for `Cn1ccc2c(-c3ccc(Nc4ccc(N5CCC6(CC5)COC6)cn4)c4c3CNC4=O)ccnc21` [I-299], < 100 nM; for `Cc1ccn2c(-c3ccc(Nc4ccc(N5CCO[C@@H](CO)C5)cn4)c4c3CNC4=O)cnc2c1F` [I-460, 4-(8-fluoro-7-methyl-imidazo[1,2-a]pyridin-3-yl)-7-[[5-[(2R)-2-(hydroxymeth-yl)morpholin-4-yl]-2-pyridyl]amino] isoindolin-1-one], < 100 nM. Consider `Cn1ccc2c(-c3ncc(Nc4cccc(N5CC[C@@H]6CNC[C@@H]65)n4)c4c3CNC4=O)ccnc21` [I-441, 7-((6-((3aR,6aR)-hexahydro-pyrrolo[3,4-b]pyrrol-1(2H)-yl)pyridin-2-yl)amino)-4-(1-methyl-1H-pyrrolo[2,3-b)pyridin-4-yl)-2,3-dihydro-1H-pyrrolo[3,4-c]pyridin-1-one], for which the IC50 lay within 100 to 1000 nM. For `CC(C)(c1ccc(Nc2ccc(-c3cnc4cc(F)ccn34)c3c2C(=O)NC3)nc1)N1CCOCC1` [I-747, 4-(7-fluoroimidazo [1,2-a]pyridin-3-yl)-7-((5-(2-morpholino-propan-2-yl)pyridin-2-yl)amino)isoin-dolin-1-one] the value was < 100 nM; for `CN(C)Cc1nc(Nc2ccc(-c3cnc4cc(F)ccn34)c3c2C(=O)NC3)ccc1[C@@]1(O)CCOC1` [I-804, (S)-7-((6-((dimethylamino)-methyl)-5-(3-hydroxytetra-hydrofuran-3-yl)pyridin-2-yl)amino)-4-(7-fluoroimidazo [1,2-a]pyridin-3-yl)isoindolin-1-one], < 100 nM.
